Data as given in the NIST ThermoML archive (doi:10.1016/j.jct.2016.07.041).
± gives the expanded uncertainty stated by the source.

Test: xn = mol fraction of the nth substance listed
Details: 101 kPa, Liquid; for viscosity: Capillary tube (Ostwald / Ubbelohde) method; for mass density: Vibrating tube method

Molecule `CCCCn1cc[n+](C)c1.F[B-](F)(F)F` [1-butyl-3-methylimidazolium tetrafluoroborate] + O has a viscosity (293.15 K, x1 = 0.0998) of 3.23 ± 0.22 mPa·s, a viscosity (293.15 K, x1 = 0.1998) of 5.52 ± 0.35 mPa·s and a viscosity (293.15 K, x1 = 0.2994) of 8.41 ± 0.52 mPa·s. The viscosity (293.15 K, x1 = 0.3992) was 12.3 ± 0.77 mPa·s, the viscosity (293.15 K, x1 = 0.5005) was 17.96 ± 1.1 mPa·s and the viscosity (293.15 K, x1 = 0.5984) was 25.98 ± 1.6 mPa·s. It also gave a viscosity (293.15 K, x1 = 0.6985) of 39.21 ± 2.5 mPa·s, a viscosity (293.15 K, x1 = 0.7988) of 59.53 ± 3.7 mPa·s and a viscosity (293.15 K, x1 = 0.8982) of 89.35 ± 5.7 mPa·s. The viscosity (293.15 K, x1 = 1) was 139.12 ± 8.7 mPa·s, the mass density (293.15 K, x1 = 0.0998) was 1103.7 ± 1.9 kg/m3 and the mass density (293.15 K, x1 = 0.1998) was 1141.5 ± 1.6 kg/m3. The mass density (293.15 K, x1 = 0.2994) was 1161.1 ± 1.3 kg/m3, the mass density (293.15 K, x1 = 0.3992) was 1173.4 ± 1.3 kg/m3 and the mass density (293.15 K, x1 = 0.5005) was 1182.3 ± 1.2 kg/m3. The mass density (293.15 K, x1 = 0.5984) was 1188.9 ± 1.2 kg/m3, the mass density (293.15 K, x1 = 0.6985) was 1194.2 ± 1.2 kg/m3 and the mass density (293.15 K, x1 = 0.7988) was 1198.5 ± 1.2 kg/m3. For the same molecule, the mass density (293.15 K, x1 = 0.8982) was 1202 ± 1.2 kg/m3, the mass density (293.15 K, x1 = 1) was 1205.1 ± 1.2 kg/m3 and the viscosity (303.15 K, x1 = 0.0998) was 2.41 ± 0.16 mPa·s. The viscosity (303.15 K, x1 = 0.1998) was 4.12 ± 0.26 mPa·s, the viscosity (303.15 K, x1 = 0.2994) was 6.21 ± 0.39 mPa·s and the viscosity (303.15 K, x1 = 0.3992) was 8.95 ± 0.56 mPa·s. For the same molecule, the viscosity (303.15 K, x1 = 0.5005) was 12.87 ± 0.8 mPa·s, the viscosity (303.15 K, x1 = 0.5984) was 18.1 ± 1.1 mPa·s and the viscosity (303.15 K, x1 = 0.6985) was 26.48 ± 1.6 mPa·s. The viscosity (303.15 K, x1 = 0.7988) was 38.86 ± 2.4 mPa·s, the viscosity (303.15 K, x1 = 0.8982) was 55.67 ± 3.5 mPa·s and the viscosity (303.15 K, x1 = 1) was 82.49 ± 5 mPa·s. The mass density (303.15 K, x1 = 0.0998) was 1097.3 ± 1.9 kg/m3, the mass density (303.15 K, x1 = 0.1998) was 1134.5 ± 1.6 kg/m3 and the mass density (303.15 K, x1 = 0.2994) was 1153.8 ± 1.3 kg/m3. The mass density (303.15 K, x1 = 0.3992) was 1166 ± 1.2 kg/m3, the mass density (303.15 K, x1 = 0.5005) was 1175 ± 1.2 kg/m3 and the mass density (303.15 K, x1 = 0.5984) was 1181.6 ± 1.2 kg/m3. For the same molecule, the mass density (303.15 K, x1 = 0.6985) was 1187 ± 1.2 kg/m3, the mass density (303.15 K, x1 = 0.7988) was 1191.4 ± 1.2 kg/m3 and the mass density (303.15 K, x1 = 0.8982) was 1195 ± 1.2 kg/m3. It also gave a mass density (303.15 K, x1 = 1) of 1198 ± 1.2 kg/m3, a viscosity (313.15 K, x1 = 0.0998) of 1.88 ± 0.12 mPa·s and a viscosity (313.15 K, x1 = 0.1998) of 3.2 ± 0.2 mPa·s. The viscosity (313.15 K, x1 = 0.2994) was 4.78 ± 0.3 mPa·s, the viscosity (313.15 K, x1 = 0.3992) was 6.79 ± 0.42 mPa·s and the viscosity (313.15 K, x1 = 0.5005) was 9.63 ± 0.59 mPa·s. For the same molecule, the viscosity (313.15 K, x1 = 0.5984) was 13.27 ± 0.82 mPa·s, the viscosity (313.15 K, x1 = 0.6985) was 18.9 ± 1.2 mPa·s and the viscosity (313.15 K, x1 = 0.7988) was 26.55 ± 1.6 mPa·s. The viscosity (313.15 K, x1 = 0.8982) was 37.01 ± 2.3 mPa·s, the viscosity (313.15 K, x1 = 1) was 52.33 ± 3.1 mPa·s and the mass density (313.15 K, x1 = 0.0998) was 1090.3 ± 1.8 kg/m3. It also gave a mass density (313.15 K, x1 = 0.1998) of 1126.9 ± 1.6 kg/m3, a mass density (313.15 K, x1 = 0.2994) of 1146.3 ± 1.3 kg/m3 and a mass density (313.15 K, x1 = 0.3992) of 1158.7 ± 1.2 kg/m3. The mass density (313.15 K, x1 = 0.5005) was 1167.7 ± 1.2 kg/m3, the mass density (313.15 K, x1 = 0.5984) was 1174.3 ± 1.2 kg/m3 and the mass density (313.15 K, x1 = 0.6985) was 1179.8 ± 1.2 kg/m3. The mass density (313.15 K, x1 = 0.7988) was 1184.3 ± 1.2 kg/m3, the mass density (313.15 K, x1 = 0.8982) was 1187.8 ± 1.2 kg/m3 and the mass density (313.15 K, x1 = 1) was 1190.8 ± 1.2 kg/m3. It also gave a viscosity (323.15 K, x1 = 0.0998) of 1.51 ± 0.1 mPa·s, a viscosity (323.15 K, x1 = 0.1998) of 2.56 ± 0.16 mPa·s and a viscosity (323.15 K, x1 = 0.2994) of 3.79 ± 0.24 mPa·s. For the same molecule, the viscosity (323.15 K, x1 = 0.3992) was 5.34 ± 0.33 mPa·s, the viscosity (323.15 K, x1 = 0.5005) was 7.5 ± 0.46 mPa·s and the viscosity (323.15 K, x1 = 0.5984) was 10.11 ± 0.62 mPa·s. For the same molecule, the viscosity (323.15 K, x1 = 0.6985) was 14.06 ± 0.87 mPa·s, the viscosity (323.15 K, x1 = 0.7988) was 19.05 ± 1.2 mPa·s and the viscosity (323.15 K, x1 = 0.8982) was 25.16 ± 1.6 mPa·s. For the same molecule, the viscosity (323.15 K, x1 = 1) was 35.16 ± 2.1 mPa·s, the mass density (323.15 K, x1 = 0.0998) was 1083.4 ± 1.8 kg/m3 and the mass density (323.15 K, x1 = 0.1998) was 1119.6 ± 1.6 kg/m3. It also gave a mass density (323.15 K, x1 = 0.2994) of 1139 ± 1.3 kg/m3, a mass density (323.15 K, x1 = 0.3992) of 1151.4 ± 1.2 kg/m3 and a mass density (323.15 K, x1 = 0.5005) of 1160.5 ± 1.2 kg/m3. The mass density (323.15 K, x1 = 0.5984) was 1167.1 ± 1.2 kg/m3, the mass density (323.15 K, x1 = 0.6985) was 1172.6 ± 1.2 kg/m3 and the mass density (323.15 K, x1 = 0.7988) was 1177.1 ± 1.2 kg/m3. For the same molecule, the mass density (323.15 K, x1 = 0.8982) was 1180.6 ± 1.2 kg/m3, the mass density (323.15 K, x1 = 1) was 1183.7 ± 1.2 kg/m3 and the viscosity (333.15 K, x1 = 0.0998) was 1.24 ± 0.08 mPa·s. It also gave a viscosity (333.15 K, x1 = 0.1998) of 2.1 ± 0.13 mPa·s, a viscosity (333.15 K, x1 = 0.2994) of 3.1 ± 0.19 mPa·s and a viscosity (333.15 K, x1 = 0.3992) of 4.31 ± 0.27 mPa·s. It also gave a viscosity (333.15 K, x1 = 0.5005) of 6 ± 0.37 mPa·s, a viscosity (333.15 K, x1 = 0.5984) of 7.99 ± 0.49 mPa·s and a viscosity (333.15 K, x1 = 0.6985) of 10.79 ± 0.66 mPa·s. It also gave a viscosity (333.15 K, x1 = 0.7988) of 14.31 ± 0.88 mPa·s, a viscosity (333.15 K, x1 = 0.8982) of 18.53 ± 1.1 mPa·s and a viscosity (333.15 K, x1 = 1) of 24.69 ± 1.5 mPa·s. For the same molecule, the mass density (333.15 K, x1 = 0.0998) was 1076.4 ± 1.8 kg/m3, the mass density (333.15 K, x1 = 0.1998) was 1112.2 ± 1.6 kg/m3 and the mass density (333.15 K, x1 = 0.2994) was 1131.5 ± 1.3 kg/m3. The mass density (333.15 K, x1 = 0.3992) was 1144 ± 1.2 kg/m3, the mass density (333.15 K, x1 = 0.5005) was 1153.3 ± 1.2 kg/m3 and the mass density (333.15 K, x1 = 0.5984) was 1160.1 ± 1.2 kg/m3. For the same molecule, the mass density (333.15 K, x1 = 0.6985) was 1165.7 ± 1.2 kg/m3, the mass density (333.15 K, x1 = 0.7988) was 1170 ± 1.2 kg/m3 and the mass density (333.15 K, x1 = 0.8982) was 1173.6 ± 1.2 kg/m3. The mass density (333.15 K, x1 = 1) was 1176.8 ± 1.2 kg/m3.
